{"source": "ChEMBL document CHEMBL3611997", "about": "“4-Fluoro-3',4',5'-trimethoxychalcone as a new anti-invasive agent. From discovery to initial validation in an in vivo metastasis model” (Eur J Med Chem, 2015)", "key": {"[1]": {"experiment": "Antiinvasive activity in human MCF7/6 cells assessed as Cmin for progressive occupation of chicken precultured heart tissue fragments after 8 days by chick heart invasion assay", "assay_type": "functional"}, "MCF7/6": {"test_system": "MCF7/6", "experiment": "Antiinvasive activity in human MCF7/6 cells assessed as Cmin for progressive occupation of chicken precultured heart tissue fragments at 0.01 to 10 umol/L after 8 days by chick heart invasion assay", "assay_type": "functional, cell-based"}, "SK-OV-3 [2]": {"test_system": "SK-OV-3", "experiment": "Antiinvasive activity in human in SKOV3 cells assessed as reduction of amount of cells present on filter at 0.1 umol/L after 24 hrs by matrigel invasion assay (reference value: 100%)", "assay_type": "functional", "design": "scale not given: the % may be the effect or the level left"}, "SK-OV-3 [3]": {"test_system": "SK-OV-3", "experiment": "Antiinvasive activity in human in SKOV3 cells assessed as reduction of amount of cells present on filter at 10 umol/L after 24 hrs by matrigel invasion assay (reference value: 100%)", "assay_type": "functional", "design": "scale not given: the % may be the effect or the level left"}, "[4]": {"experiment": "Antiinvasive activity in human in BLM cells assessed as reduction of amount of cells present on filter at 0.1 umol/L after 24 hrs by matrigel invasion assay (reference value: 100%)", "assay_type": "functional", "design": "scale not given: the % may be the effect or the level left"}, "[5]": {"experiment": "Antiinvasive activity in human in BLM cells assessed as reduction of amount of cells present on filter at 1 umol/L after 24 hrs by matrigel invasion assay (reference value: 100%)", "assay_type": "functional", "design": "scale not given: the % may be the effect or the level left"}, "[6]": {"experiment": "Antiinvasive activity in human in BLM cells assessed as reduction of amount of cells present on filter at 10 umol/L after 24 hrs by matrigel invasion assay (reference value: 100%)", "assay_type": "functional", "design": "scale not given: the % may be the effect or the level left"}, "[7]": {"experiment": "Octanol-phosphate buffer partition coefficient, log D of the compound at 100 umol/L at pH 7.4", "assay_type": "physicochemical"}, "[8]": {"experiment": "Half life of the compound in PBS at pH 7.4 at 1 umol/L", "assay_type": "ADME"}, "[9]": {"experiment": "Half life of the compound in simulated intestinal fluid at 1 umol/L", "assay_type": "ADME"}, "[10]": {"experiment": "Half life of the compound in simulated gastric fluid at 1 umol/L", "assay_type": "ADME"}, "[11]": {"experiment": "Protein binding in human plasma at 10 umol/L", "assay_type": "ADME, cell-free", "details": "read-out: PPB (converted)"}, "[12]": {"experiment": "Protein binding in human plasma assessed as recovery at 10 umol/L", "assay_type": "ADME, cell-free", "details": "read-out: Drug recovery"}, "[13]": {"experiment": "Intrinsic clearance in human liver S9 fraction at 0.1 umol/L", "assay_type": "ADME, subcellular", "details": "read-out: CLH"}, "[14]": {"experiment": "Intrinsic clearance in Sprague-Dawley rat liver S9 fraction at 0.1 umol/L", "assay_type": "ADME, subcellular", "details": "read-out: CLH"}, "[15]": {"experiment": "Permeability across apical to basolateral side of human Caco2 cells at 10 umol/L at pH 7.4", "assay_type": "ADME, cell-based", "details": "Caco-2, pH 7.4, read-out: permeability"}, "[16]": {"experiment": "Permeability across basolateral to apical side of human Caco2 cells at 10 umol/L at pH 7.4", "assay_type": "ADME, cell-based", "details": "Caco-2, pH 7.4, read-out: permeability"}, "[17]": {"experiment": "Permeability across basolateral to apical side of human Caco2 cells assessed as compound recovery at 10 umol/L at pH 7.4", "assay_type": "ADME, cell-based", "details": "Caco-2, pH 7.4, read-out: Drug recovery"}, "hERG [18]": {"biological_target": "T1, hERG (Homo sapiens, UniProt Q12809)", "T1 sequence (Q12809 whole entry)": "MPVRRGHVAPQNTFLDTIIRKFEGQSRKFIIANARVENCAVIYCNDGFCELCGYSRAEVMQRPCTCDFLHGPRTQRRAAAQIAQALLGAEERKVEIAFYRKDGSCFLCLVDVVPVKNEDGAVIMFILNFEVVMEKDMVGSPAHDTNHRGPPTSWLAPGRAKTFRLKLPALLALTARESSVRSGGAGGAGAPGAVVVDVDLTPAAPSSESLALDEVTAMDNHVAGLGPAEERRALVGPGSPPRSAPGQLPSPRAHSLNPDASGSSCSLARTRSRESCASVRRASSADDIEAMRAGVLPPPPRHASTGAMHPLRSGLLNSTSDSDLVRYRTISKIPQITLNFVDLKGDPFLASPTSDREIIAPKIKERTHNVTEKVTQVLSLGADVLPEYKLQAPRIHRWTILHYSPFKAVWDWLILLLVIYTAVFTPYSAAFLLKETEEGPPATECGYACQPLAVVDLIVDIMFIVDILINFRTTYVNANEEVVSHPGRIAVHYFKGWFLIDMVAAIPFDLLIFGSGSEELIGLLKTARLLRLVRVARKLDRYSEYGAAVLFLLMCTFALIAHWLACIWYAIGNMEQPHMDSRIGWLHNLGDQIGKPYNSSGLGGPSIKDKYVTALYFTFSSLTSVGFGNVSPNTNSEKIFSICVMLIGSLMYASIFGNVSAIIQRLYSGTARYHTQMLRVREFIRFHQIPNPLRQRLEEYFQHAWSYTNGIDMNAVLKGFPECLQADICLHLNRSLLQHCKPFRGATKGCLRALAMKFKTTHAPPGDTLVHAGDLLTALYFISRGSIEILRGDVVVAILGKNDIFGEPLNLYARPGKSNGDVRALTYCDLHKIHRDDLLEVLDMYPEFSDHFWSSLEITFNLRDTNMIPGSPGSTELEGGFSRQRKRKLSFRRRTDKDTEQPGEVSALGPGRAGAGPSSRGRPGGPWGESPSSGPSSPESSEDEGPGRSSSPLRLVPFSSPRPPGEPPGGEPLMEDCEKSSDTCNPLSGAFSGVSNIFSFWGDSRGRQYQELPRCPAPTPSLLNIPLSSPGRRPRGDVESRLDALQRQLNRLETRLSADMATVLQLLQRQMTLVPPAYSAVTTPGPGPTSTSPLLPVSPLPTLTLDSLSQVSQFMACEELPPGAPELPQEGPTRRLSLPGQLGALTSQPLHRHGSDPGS", "experiment": "Inhibition of human ERG assessed as reduction of tail current at 0.1 umol/L"}, "hERG [19]": {"biological_target": "T1, hERG", "experiment": "Inhibition of human ERG assessed as reduction of tail current at 10 umol/L"}, "Homo sapiens": {"species": "Homo sapiens", "experiment": "Displacement of [3H]-quinuclydinyl benzylate from muscarinic receptor (unknown origin) at 10 umol/L"}, "[20]": {"experiment": "Toxicity in human HepG2 cells assessed as cell viability at 1 umol/L", "assay_type": "cell-based", "details": "read-out: Activity"}, "Mus musculus [21]": {"test_system": "Mus musculus", "experiment": "Toxicity in Swiss nu/nu mouse assessed as macroscopic anomalies at 1.6 to 160 mg/kg, ip administered three times a week for two-week period measured on day 15", "assay_type": "organism-based", "details": "in vivo"}, "Mus musculus [22]": {"test_system": "Mus musculus", "experiment": "Toxicity in Swiss nu/nu mouse assessed as hematological anomalies by measuring WBC count at 16 mg/kg, ip administered three times a week for two-week period measured on day 15 (reference value: 2420 +/- 782 /microL)", "assay_type": "organism-based", "details": "in vivo"}, "Mus musculus [23]": {"test_system": "Mus musculus", "experiment": "Toxicity in Swiss nu/nu mouse assessed as hematological anomalies by measuring WBC count at 160 mg/kg, ip administered three times a week for two-week period measured on day 15 (reference value: 2420 +/- 782 /microL)", "assay_type": "organism-based", "details": "in vivo"}, "Mus musculus [24]": {"test_system": "Mus musculus", "experiment": "Toxicity in Swiss nu/nu mouse assessed as hematological anomalies by measuring AST level at 1.6 mg/kg, ip administered three times a week for two-week period measured on day 15 (reference value: 254.2 +/- 144.6 IU/L)", "assay_type": "organism-based", "details": "in vivo"}, "Mus musculus [25]": {"test_system": "Mus musculus", "experiment": "Toxicity in Swiss nu/nu mouse assessed as hematological anomalies by measuring AST level at 160 mg/kg, ip administered three times a week for two-week period measured on day 15 (reference value: 254.2 +/- 144.6 IU/L)", "assay_type": "organism-based", "details": "in vivo"}, "Mus musculus [26]": {"test_system": "Mus musculus", "experiment": "Toxicity in Swiss nu/nu mouse assessed as hematological anomalies by measuring ALT level at 160 mg/kg, ip administered three times a week for two-week period measured on day 15 (reference value: 29.6 +/- 5.6 IU/L)", "assay_type": "organism-based", "details": "in vivo"}, "Mus musculus [27]": {"test_system": "Mus musculus", "experiment": "Toxicity in Swiss nu/nu mouse assessed as hematological anomalies by measuring creatinine level at 1.6 mg/kg, ip administered three times a week for two-week period measured on day 15 (reference value: 0.29 +/- 0.02 mg/dL)", "assay_type": "organism-based", "details": "in vivo"}, "Mus musculus [28]": {"test_system": "Mus musculus", "experiment": "Toxicity in Swiss nu/nu mouse assessed as hematological anomalies by measuring creatinine level at 16 mg/kg, ip administered three times a week for two-week period measured on day 15 (reference value: 0.29 +/- 0.02 mg/dL)", "assay_type": "organism-based", "details": "in vivo"}, "[29]": {"experiment": "Antimetastasis activity against human MCF7/6 cells xenografted in Swiss nu/nu mouse assessed as increase of survival time at 160 mg/kg, ip administered thrice a week relative to control", "assay_type": "functional"}, "MCF10 [30]": {"test_system": "MCF10", "experiment": "Cytotoxicity against human MCF10 cells assessed as reduction of mitochondrial activity at 0.01 to 100 umol/L after 6 days by MTT assay", "assay_type": "cell-based", "details": "mcf10, 144 h"}, "MCF10 [31]": {"test_system": "MCF10", "experiment": "Cytotoxicity against human MCF10 cells assessed as reduction of cellular protein content at 0.01 to 100 umol/L after 6 days by SRB assay", "assay_type": "cell-based", "details": "mcf10, 144 h"}, "MDA-MB-231 [32]": {"test_system": "MDA-MB-231", "experiment": "Cytotoxicity against human MDA-MB-231 cells expressing GFP assessed as reduction of mitochondrial activity at 0.01 to 100 umol/L after 6 days by MTT assay", "assay_type": "cell-based", "details": "mda-mb-231, 144 h"}, "MDA-MB-231 [33]": {"test_system": "MDA-MB-231", "experiment": "Cytotoxicity against human MDA-MB-231 cells expressing GFP-Luc assessed as reduction of mitochondrial activity at 0.01 to 100 umol/L after 6 days by MTT assay", "assay_type": "cell-based", "details": "mda-mb-231, 144 h"}, "MDA-MB-231 [34]": {"test_system": "MDA-MB-231", "experiment": "Cytotoxicity against human MDA-MB-231 cells expressing GFP-Luc assessed as reduction of cellular protein content at 0.01 to 100 umol/L after 6 days by SRB assay", "assay_type": "cell-based", "details": "mda-mb-231, 144 h"}, "[35]": {"experiment": "Cytotoxicity against human BLM cells assessed as reduction of mitochondrial activity at 0.01 to 1 umol/L after 24 hrs by MTT assay", "assay_type": "cell-based"}, "[36]": {"experiment": "Cytotoxicity against human BLM cells assessed as reduction of mitochondrial activity at > 10 umol/L after 24 hrs by MTT assay", "assay_type": "cell-based"}, "[37]": {"biological_target": "Vascular endothelial growth factor receptor 2 (Homo sapiens) (UniProt P35968)", "sequence (P35968 whole entry)": "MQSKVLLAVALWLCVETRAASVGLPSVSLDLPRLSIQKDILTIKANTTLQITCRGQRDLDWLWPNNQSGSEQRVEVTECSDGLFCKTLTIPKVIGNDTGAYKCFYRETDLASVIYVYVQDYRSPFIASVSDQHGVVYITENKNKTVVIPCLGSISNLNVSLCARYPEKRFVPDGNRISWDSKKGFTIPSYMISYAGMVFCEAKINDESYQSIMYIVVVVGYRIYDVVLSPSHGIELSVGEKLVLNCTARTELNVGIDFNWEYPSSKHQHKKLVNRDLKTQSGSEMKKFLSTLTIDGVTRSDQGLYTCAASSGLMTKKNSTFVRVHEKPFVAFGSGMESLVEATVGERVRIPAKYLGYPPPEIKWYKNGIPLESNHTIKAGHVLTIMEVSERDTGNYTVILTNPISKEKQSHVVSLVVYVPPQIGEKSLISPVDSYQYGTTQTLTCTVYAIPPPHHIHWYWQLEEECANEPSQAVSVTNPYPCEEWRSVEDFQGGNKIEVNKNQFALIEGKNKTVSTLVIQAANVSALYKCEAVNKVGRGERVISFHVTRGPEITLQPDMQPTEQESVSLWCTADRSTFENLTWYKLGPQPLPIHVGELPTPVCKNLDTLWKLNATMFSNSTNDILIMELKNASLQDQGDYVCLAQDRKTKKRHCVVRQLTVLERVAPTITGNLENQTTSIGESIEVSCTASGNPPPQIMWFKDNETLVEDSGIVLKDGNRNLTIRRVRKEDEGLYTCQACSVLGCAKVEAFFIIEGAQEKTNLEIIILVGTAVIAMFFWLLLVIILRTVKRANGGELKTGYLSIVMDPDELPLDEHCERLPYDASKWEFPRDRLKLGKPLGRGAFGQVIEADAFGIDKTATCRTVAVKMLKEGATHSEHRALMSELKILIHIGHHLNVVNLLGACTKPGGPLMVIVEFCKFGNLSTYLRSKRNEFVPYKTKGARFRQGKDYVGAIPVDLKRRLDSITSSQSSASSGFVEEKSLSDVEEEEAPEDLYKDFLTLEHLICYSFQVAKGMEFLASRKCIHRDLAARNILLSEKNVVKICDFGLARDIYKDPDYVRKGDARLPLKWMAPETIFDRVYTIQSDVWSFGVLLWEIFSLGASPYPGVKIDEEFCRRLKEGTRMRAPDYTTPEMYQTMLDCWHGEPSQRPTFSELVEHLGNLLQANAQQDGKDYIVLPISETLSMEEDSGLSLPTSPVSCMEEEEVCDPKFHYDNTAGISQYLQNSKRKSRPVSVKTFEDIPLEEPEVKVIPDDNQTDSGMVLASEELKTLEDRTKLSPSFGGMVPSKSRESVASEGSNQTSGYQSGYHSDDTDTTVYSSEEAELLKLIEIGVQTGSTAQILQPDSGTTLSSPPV", "experiment": "Inhibition of human KDR using and Ulight-CAGAGAIETDKEYYTVKD as substrate at 0.1 umol/L after 1 hr by FRET assay"}}, "note": "Calls of active or inactive are those of the source. The calls are words filed in the database; no cut-off is given here."}
{"smiles": "COc1cc(C(=O)/C=C/c2ccc(F)cc2)cc(OC)c1OC", "values": [{"measurement": "Cmin", "setting": "[1]", "value": 0.01, "unit": "µmol/L"}, {"measurement": "Activity", "setting": "MCF7/6", "value": "Active"}, {"measurement": "Activity", "setting": "SK-OV-3 [2]", "value": 85, "unit": "%"}, {"measurement": "Activity", "setting": "SK-OV-3 [3]", "value": 12, "unit": "%"}, {"measurement": "Activity", "setting": "[4]", "value": 20, "unit": "%"}, {"measurement": "Activity", "setting": "[5]", "value": 33, "unit": "%"}, {"measurement": "Activity", "setting": "[6]", "value": 7, "unit": "%"}, {"measurement": "logD at 100 µM", "setting": "[7]", "value": 3.85}, {"measurement": "half-life at 1 µM", "setting": "[8]", "value": "> 4", "unit": "h"}, {"measurement": "half-life at 1 µM", "setting": "[9]", "value": "> 4", "unit": "h"}, {"measurement": "half-life at 1 µM", "setting": "[10]", "value": "> 1", "unit": "h"}, {"measurement": "fraction unbound at 10 µM", "setting": "[11]", "value": 0.01}, {"measurement": "recovery at 10 µM", "setting": "[12]", "value": 90, "unit": "%"}, {"measurement": "microsomal CLint at 0.1 µM", "setting": "[13]", "value": 57.3, "unit": "µL/min/mg"}, {"measurement": "microsomal CLint at 0.1 µM", "setting": "[14]", "value": 116, "unit": "µL/min/mg"}, {"measurement": "Papp A→B at 10 µM", "setting": "[15]", "value": 10.4, "unit": "×10⁻⁶ cm/s"}, {"measurement": "Papp B→A at 10 µM", "setting": "[16]", "value": 4.9, "unit": "×10⁻⁶ cm/s"}, {"measurement": "recovery at 10 µM", "setting": "[17]", "value": 66, "unit": "%"}, {"measurement": "inhibition at 0.1 µM", "setting": "hERG [18]", "value": 3.7, "unit": "%"}, {"measurement": "inhibition at 10 µM", "setting": "hERG [19]", "value": 28.3, "unit": "%"}, {"measurement": "inhibition", "setting": "Homo sapiens", "value": -5.1, "unit": "%"}, {"measurement": "viability at 1 µM", "setting": "[20]", "value": 93.8, "unit": "%"}, {"measurement": "Activity", "setting": "Mus musculus [21]", "value": "Non-toxic"}, {"measurement": "Activity", "setting": "Mus musculus [22]", "value": 5960, "unit": "µL⁻¹"}, {"measurement": "Activity", "setting": "Mus musculus [23]", "value": 3180, "unit": "µL⁻¹"}, {"measurement": "Activity", "setting": "Mus musculus [24]", "value": 135.5, "unit": "IU/L"}, {"measurement": "Activity", "setting": "Mus musculus [25]", "value": 207.8, "unit": "IU/L"}, {"measurement": "Activity", "setting": "Mus musculus [26]", "value": 33.2, "unit": "IU/L"}, {"measurement": "Activity", "setting": "Mus musculus [27]", "value": 0.22, "unit": "mg/dL"}, {"measurement": "Activity", "setting": "Mus musculus [28]", "value": 0.32, "unit": "mg/dL"}, {"measurement": "Survival", "setting": "[29]", "value": 34, "unit": "days"}, {"measurement": "Activity", "setting": "MCF10 [30]", "value": "Non-toxic"}, {"measurement": "Activity", "setting": "MCF10 [31]", "value": "Non-toxic"}, {"measurement": "Activity", "setting": "MDA-MB-231 [32]", "value": "Non-toxic"}, {"measurement": "Activity", "setting": "MDA-MB-231 [33]", "value": "Non-toxic"}, {"measurement": "Activity", "setting": "MDA-MB-231 [34]", "value": "Non-toxic"}, {"measurement": "Activity", "setting": "[35]", "value": "Non-toxic"}, {"measurement": "Activity", "setting": "[36]", "value": "Toxic"}, {"measurement": "inhibition", "setting": "[37]", "value": -3.5, "unit": "%"}]}
